Experimental findings from patent US20250282798A1, “HETEROARYL-SUBSTITUTED BICYCLIC COMPOUND AND USE THEREOF” (Medshine Discovery Inc., priority 2022, published 2025) are described below.

Data set [1] is described as follows: In vitro metabolic stability in human liver microsomes. In kind it is in vitro ADME. The following applies: 1 μM compound, 0.5 mg/mL protein. As for the experimental part:
The in vitro metabolic stability of the compounds of the present disclosure in human was investigated by the metabolic stability in human liver microsomes.
Assay conditions: 1 μM of a compound was incubated with human liver microsomes supplemented with NADPH regeneration system at 37° C. for a certain period of time up to 60 minutes. The concentration of the compound in the resulting sample was assayed by LC-MS/MS method.
Assay procedure: 96-well incubation plates were named T0, T5, T15, T30, T45, T60, Blank60 and NCF60, respectively. The reaction time corresponding to the incubation plates were 0, 5, 15, 30, 45 and 60 minutes, respectively. No test sample or control compound was added to the Blank60 plate, and samples were taken after 60 minutes of incubation. Potassium phosphate buffer was used instead of NADPH regeneration system solution in the NCF60 plate, and the plate was incubated for 60 minutes. All the samples of the time points were from a single well.
5 μL of a test sample or control sample working solution and 100 μL of microsome working solution (the concentration of liver microsome protein was 0.5 mg/mL) were added to the T0, T5, T15, T30, T45, T60 and NCF60 plates, respectively. Only microsome working solution was added to the Blank60 plate. Then, the Blank60, T5, T15, T30, T45 and T60 plates, except TO and NCF60 plates, were placed in a 37° C. water bath, and preincubated for about 10 minutes.
180 μL of stop solution (the stop solution was a solution of tolbutamide (100 ng/mL) in acetonitrile and methanol (95:5, V/V)) was firstly added to the sample of TO plate, and then the NADPH regeneration system working solution was added.
50 μL of potassium phosphate buffer was added to each well of the NCF60 plate, and the plate was incubated for 60 minutes.
After the pre-incubation of Blank60, T5, T15, T30, T45 and T60 plates, 44 μL of NADPH regeneration system working solution was added to each sample well to initiate the reaction. Therefore, for the sample wells containing a test sample or control sample working solution, the final concentration of the reaction was […], the concentration of liver microsomes was 0.5 mg/mL, and the final concentrations of DMSO and acetonitrile in the reaction system were 0.01% (v/v) and 0.99% (v/v), respectively.
After being incubated for an appropriate time (e.g., 5, 15, 30, 45, and 60 min), 180 μL of stop solution was added to each well of the test sample and control sample of Blank60, T5, T15, T30, T45, T60, and NCF60 plates, respectively, to terminate the reaction.
All sample plates were shaken and centrifuged for 10 min. 80 μL of the supernatant of a test sample was taken and diluted into 240 μL of a mixture of acetonitrile and water (1:9, V/V) containing 0.1% formic acid for LC-MS/MS analysis.
By calculating the corresponding time point and the remaining percentage of a compound, the half-life T1/2 and clearance rate CLint(liver) of the compound in human liver microsome metabolism were obtained.
Background: Liver microsomes are vesicles of endoplasmic reticulum, rich in cytochrome P450 enzymes.

In another data set the target is human GLK (Homo sapiens (Human), UniProt Q8IVH8). As to the kind of experiment: Kinase activity assay using ADP-Glo method, GLK. The following applies: GLK enzyme concentration 8 nM; ATP 20 μM. In kind it is biochemical. As for the experimental part:
The IC50 value was assayed by the kinase activity assay using ADP-Glo method to evaluate the inhibitory ability of a test compound on human GLK.
Enzyme buffer conditions: 50 mM Hepes (pH 7.5), 10 mM MgCl2, 1 mM EGTA, 0.01% Brij35, 2 mM DTT.
Preparation of the mixture of kinase and substrate: the concentration of GLK in the reaction solution was 8 nM, the concentration of ATP was […], and the concentration of MBP was 0.05 mg/mL.
(§1) Assay steps: A compound was diluted 4-fold with DMSO in a dilution plate, with a final initial concentration of […] and 10 concentration gradient points. The compound was diluted 50-fold into the kinase reaction buffer, and the mixture was shaken on a shaker for 20 minutes. The kinase was prepared with the enzyme reaction buffer. 2 μL of kinase was added to each well of a reaction plate. 1 μL of the diluted compound in the buffer was added to each well. The plate was sealed with a sealing film, centrifuged at 1000 g for 30 seconds, and placed at room temperature for 10 minutes. The mixed solution of ATP/MBP was prepared with the enzyme reaction buffer. 2 μL of the mixed solution of ATP/MBP was added to the reaction plate. The plate was sealed with a sealing film, and centrifuged at 1000 g for 30 seconds. The mixture in the plate was reacted at room temperature for 60 minutes. 4 μL of ADP-Glo was transferred to the 384 reaction plate, and centrifuged at 1000 rpm/min for 1 min. The plate was incubated at 25° C. for 40 min. 8 μL of detection solution was transferred to the 384 reaction plate, and centrifuged at 1000 rpm/min for 1 min. The plate was incubated at 25° C. for 40 min. The RLU (relative luminescence unit) signal was read with a BMG microplate reader, and the signal intensity was used to characterize the activity of the kinase.
(§2) The kinase activity data were expressed as the comparison of the kinase activity of a group with a test compound and the kinase activity of the blank group (containing only DMSO). The IC50 value was obtained by curve fitting using Prism software (GraphPad7.0).
On the technique in general: ADP-Glo first removes unused ATP, then detects ADP through luciferase.

In the next data set the target is human HPK1 (Homo sapiens (Human), UniProt Q92918). Kind of data set: Kinase activity assay using ADP-Glo method (Method 2). In kind it is biochemical. The following applies: HPK1 enzyme concentration 0.1 nM; ATP concentration 10 μM. As for the experimental part: Method 2: The IC50 value was assayed by the kinase activity assay using ADP-Glo method to evaluate the inhibitory ability of a test compound on human HPK1.
Enzyme buffer conditions: 50 mM Hepes (pH 7.5), 10 mM MgCl2, 1 mM EGTA, 0.01% Brij35, 2 mM DTT. […]
as §1, with “4 μL of ADP-Glo was transferred to the 384 reaction plate, and centrifuged at 1000 rpm/min for 1 min.” left out, “8 μL of detection solution was transferred to the 384 reaction plate, and centrifuged at 1000 rpm/min for 1 min.” left out
as §2

human HPK1, sequence (Q92918 whole entry): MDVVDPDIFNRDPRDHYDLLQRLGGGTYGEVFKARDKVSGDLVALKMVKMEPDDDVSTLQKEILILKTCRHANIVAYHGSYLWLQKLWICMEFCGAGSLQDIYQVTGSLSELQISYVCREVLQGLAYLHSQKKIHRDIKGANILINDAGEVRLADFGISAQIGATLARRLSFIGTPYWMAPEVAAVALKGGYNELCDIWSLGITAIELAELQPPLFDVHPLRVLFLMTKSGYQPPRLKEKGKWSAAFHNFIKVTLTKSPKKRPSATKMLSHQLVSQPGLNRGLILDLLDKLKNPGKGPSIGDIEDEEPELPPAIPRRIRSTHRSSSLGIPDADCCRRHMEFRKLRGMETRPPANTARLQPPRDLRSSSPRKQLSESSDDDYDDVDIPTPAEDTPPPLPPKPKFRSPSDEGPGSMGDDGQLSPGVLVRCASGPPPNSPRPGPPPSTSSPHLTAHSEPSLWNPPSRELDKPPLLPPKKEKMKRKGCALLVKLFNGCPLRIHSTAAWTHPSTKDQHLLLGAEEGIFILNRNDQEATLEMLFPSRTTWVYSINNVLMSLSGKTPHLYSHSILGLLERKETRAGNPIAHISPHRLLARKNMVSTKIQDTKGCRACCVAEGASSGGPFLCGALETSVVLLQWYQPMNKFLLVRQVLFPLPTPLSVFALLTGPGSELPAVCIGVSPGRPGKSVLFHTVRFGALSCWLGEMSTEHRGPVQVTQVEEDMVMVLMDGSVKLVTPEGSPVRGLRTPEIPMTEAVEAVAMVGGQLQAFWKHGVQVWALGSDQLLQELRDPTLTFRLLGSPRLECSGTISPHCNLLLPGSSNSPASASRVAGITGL
human GLK, sequence (Q8IVH8 whole entry): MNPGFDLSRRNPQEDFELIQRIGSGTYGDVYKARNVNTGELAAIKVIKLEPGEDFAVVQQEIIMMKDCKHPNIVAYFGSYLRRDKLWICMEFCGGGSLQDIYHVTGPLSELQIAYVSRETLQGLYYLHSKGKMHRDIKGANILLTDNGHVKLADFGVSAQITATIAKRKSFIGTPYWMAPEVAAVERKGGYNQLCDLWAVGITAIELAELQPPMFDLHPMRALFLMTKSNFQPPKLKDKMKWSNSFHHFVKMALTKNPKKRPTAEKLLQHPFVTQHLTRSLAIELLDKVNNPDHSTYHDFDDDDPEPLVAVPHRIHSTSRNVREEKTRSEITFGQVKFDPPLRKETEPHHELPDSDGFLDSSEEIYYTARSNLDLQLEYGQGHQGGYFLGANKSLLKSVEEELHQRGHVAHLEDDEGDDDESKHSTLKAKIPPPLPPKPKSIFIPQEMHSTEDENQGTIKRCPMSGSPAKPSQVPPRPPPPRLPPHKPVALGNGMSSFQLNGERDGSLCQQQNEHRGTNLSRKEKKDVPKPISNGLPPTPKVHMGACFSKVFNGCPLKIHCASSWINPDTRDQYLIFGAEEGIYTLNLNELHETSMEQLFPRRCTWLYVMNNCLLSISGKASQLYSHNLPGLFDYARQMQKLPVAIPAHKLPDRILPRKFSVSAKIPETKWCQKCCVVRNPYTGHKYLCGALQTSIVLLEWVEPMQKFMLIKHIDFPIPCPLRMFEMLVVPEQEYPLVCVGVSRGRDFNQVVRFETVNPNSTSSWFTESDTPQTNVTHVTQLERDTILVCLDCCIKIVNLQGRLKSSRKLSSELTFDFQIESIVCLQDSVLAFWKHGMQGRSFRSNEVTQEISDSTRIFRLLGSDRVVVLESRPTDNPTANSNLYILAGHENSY

For the molecule `Cn1ccc2c(-c3ncc(Nc4ccc5c(n4)OC[C@@H]4COCCN54)c4c3CNC4=O)ccnc21` [Compound 4], in data set [1], the “CLint(liver)” value was determined as 35 mL/min/kg and the T1/2 amounted to 36 min. Also, at human GLK, the midpoint of inhibition, the IC50, lay at 594 nM. For the same molecule, the IC50 (as a rule, the point on the concentration scale where inhibition reaches its midpoint) at human HPK1 was determined as 0.62 nM.

For the molecule `O=C1NCc2c(-c3cnc4cc(F)ccn34)ccc(Nc3ccc4c(n3)OC[C@@H]3COCCN43)c21` [Compound 8], in data set [1], the CLint scaled (in general, the capacity of the preparation to metabolise the compound, expressed as a volume cleared per time) at 1 μM was 37 mL/min/kg and the half-life – broadly, the time needed for the level to fall by half in the phase considered – at 1 μM amounted to 34 min. In addition, inhibition on human GLK was half-maximal at 154 nM (IC50). The molecule further had a concentration for half-maximal inhibition (IC50) against human HPK1 of 2 nM.
